Experimental data as given in patent US8293786B2 (Alltranz Inc., priority 2007, dated 2012).

How the values were obtained:
[1] = Plasma stability of cannabidiol prodrugs (bioconversion to parent drug); assay type: in vitro ADME; conditions: Table 20, di-prodrug in plasma; for % mono-prodrug at time (h): mono-prodrug formed
Description: An approximated 1 mg/mL stock solution of each prodrug was prepared in 100 μL of ethanol and 900 μL of acetonitrile. Ten (10) μL of stock was spiked into 1 mL of plasma and vortexed. The samples were kept sealed in an amber vial and samples were obtained to analyze for bioconversion to parent drug.

[2] = system: human abdominal skin; test: In vitro human skin permeation and skin disposition, flow-through diffusion cells (Examples 2, 2A, 2B); assay type: in vitro ADME
Description: Flow through diffusion cells were used for the permeation studies. HEPES-buffered Hanks' balanced salts containing 40% PEG 400 with gentamicin or 40% aqueous PEG 400 with gentamicin were used for the receiver compartment. Donor solution was comprised of 90:8:2 PG:H2O:IPM solution or gel formulation. […] Drug accumulation in the skin after a 24, 30 or 42 h diffusion experiment was determined as μmol/g wet tissue weight.
The skin samples used in the following experiments were obtained from abdominal reduction surgery and dermatomed to a thickness of approximately 200 μm. The skin samples used herein were frozen at −20° C. for less than six months.
One (1) L of receiver fluid was prepared by measuring 1 L of nanopure water into a graduated cylinder. 90% of the water was added to an Erlenmeyer flask. Hanks' salts (1 bottle) were added to the water along with 5.96 g of HEPES and 0.35 g of sodium bicarbonate. The pH of the solution was adjusted with 1 N sodium hydroxide solution to pH 7.4. The remaining water was added and the receiver fluid was filtered through a 0.2μ filter (Millipore, Billerica, Mass.). Fifty (50) mg of gentamicin was added to the filtered receiver fluid and 400 mL of the receiver fluid was removed and replaced with 400 mL of PEG 400.
The receiver fluid was prepared by measuring 600 mL of nanopure H2O into a graduated cylinder. The H2O was filtered through a 0.2μ filter (Millipore, Billerica, Mass.). Fifty (50) mg of gentamicin was added to the filtered H2O and 400 mL of PEG 400 was added.
The prodrugs were made up in a solution of 45:4:1 PG:H2O:IPM. For this solution, the appropriate amount of drug was weighed into a glass silanized culture tube and IPM was added, the 50 μL of PG to coat the drug, then an additional 247 μL PG was added and the donor solution was vortexed again. Finally 26 μL of water was added. The gel formulation resulted from the mixing of absolute ethanol, nanopure water, IPM, Carbopol® 980, 0.1 N sodium hydroxide solution and the respective drug.
The gel formulation was comprised of absolute ethanol, nanopure water, IPM, Carbopol® 980, 0.1 sodium hydroxide solution and respective drug. The anhydrous gel was comprised of absolute ethanol, PEG monoethyl ether 550, Klucel® hydroxypropylcellulose, and respective drug.
Dermatomed skin harvested from abdominoplasty, stored at −20° C., was used for the experiments. A PermeGear flow-through (In-Line, Hellertown, Pa.) diffusion cell system was used for the skin permeation studies.
Diffusion cells were kept at 32° C. with a circulating water bath. Human epidermal skin was arranged in the diffusion cell with stratum corneum (upper layer of skin) facing the donor compartment. The permeation area of the skin was 0.95 cm^2. The data was collected from a human skin donor with three diffusion cells per treatment.
The receiver solution was HEPES-buffered Hanks' balanced salts with gentamicin containing 40% PEG 400 at a pH of 7.4 or 40% aqueous PEG 400 and flow rate was adjusted to 0.8 mL/h. Each cell was charged with 0.10 mL of the respective drug formulation (donor solution) or 50 μL of gel formulation which was rubbed into the skin for 15 sec with a Teflon coated rod. The formulation was applied to ensure complete coverage. […]. Diffusion cells were covered with a stopper or cap for the duration of the study.
Samples were collected into scintillation vials in 3 h increments for either 24, 30, or 42 h. All the samples were stored at 4° C. until extracted. An aliquot (0.5 mL) of the diffusion sample was placed into a silanized HPLC vial and 0.5 mL of acetonitrile was added to the sample, capped and vortexed.
At the end of the experiment, the skin tissue was removed from the diffusion cell, rinsed with nanopure water, and blotted dry with a paper towel. The skin was tape stripped twice using book tape (Scotch™, 3M, St. Paul, Minn.) to remove drug formulation adhering to the tissue surface.

[3] = Table 17, 90:8:2 PG:H2O:IPM donor solution, 40% aqueous PEG 400 receiver fluid, as applied compound (CBD or intact prodrug)
[4] = Table 17, 90:8:2 PG:H2O:IPM donor solution, 40% aqueous PEG 400 receiver fluid, prodrug applied, as total cannabidiol equivalents
[5] = Table 18, 90:8:2 PG:H2O:IPM donor solution, 40% aqueous PEG 400 receiver fluid, CBD from applied prodrug
[6] = Table 18, 90:8:2 PG:H2O:IPM donor solution, 40% aqueous PEG 400 receiver fluid, mono-prodrug from applied di-prodrug
[7] = Table 18, 90:8:2 PG:H2O:IPM donor solution, 40% aqueous PEG 400 receiver fluid, prodrug applied, as total cannabidiol equivalents

SMILES: C=C(C)[C@@H]1CCC(C)=C[C@H]1c1c(OC(C)=O)cc(CCCCC)cc1OC(C)=O [ALL00142, CBD Diacetate]
- % mono-prodrug at time (h) ([1]; 1 h): 0%
- % mono-prodrug at time (h) ([1]; 3 h): 0%
- % mono-prodrug at time (h) ([1]; 24 h): 0%
- % Di-prodrug at time (h) ([1]; 0 h): 100%
- % Di-prodrug at time (h) ([1]; 1 h): 98%
- % Di-prodrug at time (h) ([1]; 3 h): 90%
- % Di-prodrug at time (h) ([1]; 24 h): 10%
- 30 h skin conc [2, 3]: 5.5 ± 0.3 µmol/g
- 30 h skin conc [2, 4]: 5.5 ± 0.3 µmol/g
- detected in the skin as ([2]; in donor solution): only as intact prodrug
- permeated through the skin as ([2]; in donor solution): did not permeate through the skin or was below detection in the receiver samples
- total skin concentrations compared to cannabidiol ([2]; in donor solution): not higher

SMILES: C=C(C)[C@@H]1CCC(C)=C[C@H]1c1c(OC(=O)OC)cc(CCCCC)cc1OC(=O)OC [ALL00143, CBD Bis(Methyl Carbonate)]
- % mono-prodrug at time (h) ([1]; 1 h): 0%
- % mono-prodrug at time (h) ([1]; 3 h): 0%
- % mono-prodrug at time (h) ([1]; 24 h): 0%
- % Di-prodrug at time (h) ([1]; 0 h): 100%
- % Di-prodrug at time (h) ([1]; 1 h): 82%
- % Di-prodrug at time (h) ([1]; 3 h): 76%
- % Di-prodrug at time (h) ([1]; 24 h): 65%
- 30 h skin conc ([2]; Table 17, 90:8:2 PG:H2O:IPM donor solution, 40% aqueous PEG 400 receiver fluid, CBD from applied prodrug): 0.5 ± 0.0 µmol/g
- 30 h skin conc [2, 3]: 5.8 ± 3.0 µmol/g
- 30 h skin conc [2, 4]: 6.0 ± 3.2 µmol/g
- detected in the skin as ([2]; in donor solution): prodrug and trace amounts of cannabidiol
- permeated through the skin as ([2]; in donor solution): did not permeate through the skin or was below detection in the receiver samples
- total skin concentrations compared to cannabidiol ([2]; in donor solution): not higher

SMILES: C=C(C)[C@@H]1CCC(C)=C[C@H]1c1c(OC=O)cc(CCCCC)cc1OC=O [ALL00145, CBD Diformate]
- % mono-prodrug at time (h) ([1]; 0 h): 40%
- % mono-prodrug at time (h) ([1]; 0.5 h): 44%
- % mono-prodrug at time (h) ([1]; 22 h): 23%
- % mono-prodrug at time (h) ([1]; 24 h): 11%
- % Di-prodrug at time (h) ([1]; 0 h): 60%
- % Di-prodrug at time (h) ([1]; 0.5 h): 45%
- % Di-prodrug at time (h) ([1]; 22 h): 37%
- % Di-prodrug at time (h) ([1]; 24 h): 13%
- 30 h cumulative amt [2, 5]: 17.2 ± 4.5 nmol
- 30 h skin conc [2, 5]: 8.8 ± 7.0 µmol/g
- Flux [2, 5]: 1.4 ± 0.1 nmol/cm^2/h
- Lag time [2, 5]: 17.4 ± 3.3 h
- 30 h skin conc ([2]; Table 18, 90:8:2 PG:H2O:IPM donor solution, 40% aqueous PEG 400 receiver fluid, as applied compound (CBD or intact prodrug)): 3.8 ± 2.1 µmol/g
- 30 h cumulative amt [2, 6]: 17.5 ± 6.1 nmol
- 30 h skin conc [2, 6]: 23.5 ± 19.3 µmol/g
- Flux [2, 6]: 1.5 ± 0.6 nmol/cm^2/h
- Lag time [2, 6]: 19.0 ± 1.9 h
- 30 h cumulative amt [2, 7]: 34.7 ± 7.0 nmol
- 30 h skin conc [2, 7]: 36.1 ± 28.2 µmol/g
- Flux [2, 7]: 2.9 ± 0.7 nmol/cm^2/h
- Lag time [2, 7]: 17.2 ± 2.5 h
- Flux enhancement ([2]; Table 18, 90:8:2 PG:H2O:IPM donor solution, 40% aqueous PEG 400 receiver fluid, total cannabidiol versus cannabidiol): 0.35
- detected in the skin as ([2]; in donor solution): prodrug, mono-substituted prodrug, ALL00146, and cannabidiol
- flux compared to cannabidiol ([2]; in donor solution): did not increase the flux
- lag time compared to cannabidiol ([2]; in donor solution): wasn't decreased
- share permeated through the skin as cannabidiol ([2]; in donor solution): approximately 50%
- share permeated through the skin as mono-substituted prodrug ([2]; in donor solution): approximately 50%
- total skin concentrations compared to cannabidiol ([2]; in donor solution): higher
